{"source": "patent US20220155322A1", "about": "“USE OF NATRIURETIC PEPTIDES TO ASSESS AND TREAT ACUTE KIDNEY INJURY” (Mayo Foundation for Medical Education and Research, priority 2019, published 2022)", "key": {"[1]": {"tested_on": "AKI canine kidneys (renal cortex)", "assay": "Renal injury ex vivo analysis (H&E histology and TUNEL)", "type": "in vivo", "conditions": "AKI canine kidney cortex, compared to vehicle", "description": "Histology and TUNEL Analysis: Fixed renal tissues were embedded in paraffin. For histology analysis, paraffin-embedded slides in vehicle (n=5) and CRRL269 (n=5) were stained with hematoxylin and eosin (H&E). A renal pathologist who was blinded to the study examined the H&E stained slides. Renal morphologic injuries such as tubular dilation and vacuolization were evaluated. Renal cortical apoptosis in vehicle (n=5) and CRRL269 (n=5) treated dogs were assessed using a TUNEL assay (Promega; Madison, Wis.) followed the protocol provided by the manufacturer. […] DAPI (Vectashield, Vector Laboratories; Burlingame, Calif.) was used to label the nucleus. TUNEL results were analyzed by confocal fluorescence microscopy (Nikon A50R; Melville, N.Y.)."}, "[2]": {"tested_on": "human primary aortic vascular smooth muscle cells (HASMC)", "assay": "Intracellular calcium under ANGII stimulation (Fura-2)", "type": "cell-based", "description": "Measurements of Intracellular Calcium in Vascular Smooth Muscle Cells: HASMC (ScienCell Research Laboratories; Carlsbad, Calif.) were cultured and maintained as instructed by the manufacturer. Cells at passage 4 or 5 were used for experiments. Calcium imaging was performed as described elsewhere (Chai et al., Cardiovasc Res, 100:151-159, 2013). Briefly, cells were seeded on a 25 mm round cover glass (Fisher Scientific; Pittsburgh, Pa.) at a density of 5×10^4 cells per slide. The slides had been pretreated with 0.5 N NaOH for 8 hours, rinsed with water, and sterilized before use. After overnight culturing, the slides with cells were assembled in a MS-02 Chamber (ALA Scientific Instrument; Farmingdale, N.Y.) and loaded with 3 μM fura-2 AM (Invitrogen; Carlsbad, Calif.) for 30 minutes in a 37° C. incubator. The chamber was then placed on the stage of an inverted Olympus IX71 microscope (Olympus America Inc.; Waltham, Mass.). The cells were maintained in 1 mL HASMC medium and treated with or without ANP, BNP, or CRRL269 at concentration of 10^−9 or 10^−7 M for 5 minutes before perfused with 5 mL medium containing ANGII (10^−8 or 10^−7 M). Intracellular Ca2^+ fluorescence signals were measured as a ratio of fluorescence intensities at 510 nm from excitations of 340/380 nm, using a Hamamatsu ORCA-R2 CCD camera with a Sutter LB-LS/17 light source. Baseline fluorescence was recorded after 5 minutes of treatment, and fluorescence images were acquired continuously during the ANGII perfusion. Background fluorescence was subtracted and the calcium signal (F) was normalized to baseline fluorescence (FO) and expressed as a ratio (F/FO) using MetaFluor software (Olympus America Inc.)."}}, "note": "Positions of bridges follow the written chain, without caps; N, C: chain ends. Residues, ends and D or L forms follow the SMILES beside them.", "data": [{"smiles": "CC[C@H](C)[C@@H]1NC(=O)[C@H](CCCNC(=N)N)NC(=O)[C@H](CC(=O)O)NC(=O)[C@H](CCSC)NC(=O)[C@H](CCCCN)NC(=O)[C@H](CCCNC(=N)N)NC(=O)CNC(=O)[C@H](Cc2ccccc2)NC(=O)[C@@H](NC(=O)[C@H](CO)NC(=O)[C@H](CO)NC(=O)[C@H](CCCNC(=N)N)NC(=O)[C@H](CCCNC(=N)N)NC(=O)[C@H](CC(C)C)NC(=O)[C@H](CO)NC(=O)[C@H](CCCNC(=N)N)NC(=O)[C@@H]2CCCN2C(=O)[C@H](C)NC(=O)[C@@H](N)[C@@H](C)O)CSSC[C@@H](C(=O)N[C@@H](CC(N)=O)C(=O)N[C@@H](CO)C(=O)N[C@@H](Cc2ccccc2)C(=O)N[C@@H](CCCNC(=N)N)C(=O)N[C@@H](Cc2ccc(O)cc2)C(=O)O)NC(=O)CNC(=O)[C@H](CC(C)C)NC(=O)CNC(=O)[C@H](CO)NC(=O)[C@H](CO)NC(=O)[C@H](CO)NC(=O)[C@H](CO)NC1=O", "note": "[CRRL269] (H-TAPRSLRRSSCFGRKMDRISSSSGLGCNSFRY-OH; disulfide 11-27)", "values": [{"measurement": "renal cortex vacuolization (H&E staining)", "setting": "[1]", "value": "less vacuolization compared to vehicle"}, {"measurement": "renal cortical apoptosis (TUNEL assay)", "setting": "[1]", "value": "reduced apoptosis"}, {"measurement": "Ca2^+ suppression relative to ANP and BNP", "setting": "[2]; HASMC, pretreatment at 10^−9 or 10^−7 M, ANGII stimulation", "value": "less Ca2^+ suppression than ANP and BNP"}, {"measurement": "Ca2^+ enhancement by ANGII in HASMC", "setting": "[2]; pretreatment at 10^−9 or 10^−7 M for 5 minutes, ANGII 10^−8 or 10^−7 M", "value": "suppressed"}]}]}
